Laboratory results: patent US20100280047A1, “SALTS OF ACTIVE INGREDIENTS WITH POLYMERIC COUNTER-IONS” (BASF SE, priority 2007, published 2010)

How the values were obtained:
[1] = Saturation solubility of loperamide in aqueous polymer solutions (HPLC of filtrate); type: physicochemical
Experimental: 1.0 g of loperamide (free base) was added to 100.0 ml of aqueous polymer solution and stirred for 72 h. […] The undissolved amount of loperamide was filtered off. The content of loperamide in the filtrate was determined by HPLC.
For comparison, the saturation solubility of loperamide was determined in demineralized water, as well as in hydrochloric acid. In the case of the latter, the corresponding loperamide hydrochloride is formed.

[2] = Saturation solubility of haloperidol in aqueous polymer solutions (HPLC of filtrate); type: physicochemical
Experimental: 1.0 g of haloperidol (free base) was added to 100.0 ml of aqueous polymer solution and stirred for 72 h. […] The undissolved amount of haloperidol was filtered off. The content of haloperidol in the filtrate was determined by HPLC.
For comparison, the saturation solubility of haloperidol was determined in demineralized water, as well as in hydrochloric acid. In the latter case, the corresponding haloperidol hydrochloride is formed.

Concentration of dissolved haloperidol ([2]; 10% by wt. polymer D in water, stirred 72 h, pH of filtered solution 3.2) [µg/mL] | Concentration of dissolved haloperidol ([2]; 20% by wt. polymer A in water, stirred 72 h, pH of filtered solution 3.0) [µg/mL] | Concentration of dissolved haloperidol ([2]; 20% by wt. polymer C in water, stirred 72 h, pH of filtered solution 3.3) [µg/mL] | Concentration of dissolved haloperidol ([2]; 20% by wt. polymer D in water, stirred 72 h, pH of filtered solution 3.0) [µg/mL] | Concentration of dissolved haloperidol ([2]; 20% solution of polymer A plus NaOH to pH 10, pH of filtered solution 10.1) [µg/mL] | Concentration of dissolved haloperidol ([2]; demineralized water, 0% polymer, stirred 72 h, pH of filtered solution 7.5) [µg/mL] | Concentration of dissolved haloperidol ([2]; hydrochloric acid 10%, no polymer (haloperidol hydrochloride is formed)) [µg/mL] | SMILES | Concentration of dissolved loperamide ([1]; 10% by wt. polymer A in water, stirred 72 h, pH of filtered solution 2.5) [µg/mL] | Concentration of dissolved loperamide ([1]; 10% by wt. polymer B in water, stirred 72 h, pH of filtered solution 2.0) [µg/mL] | Concentration of dissolved loperamide ([1]; 20% by wt. polymer A in water, stirred 72 h) [µg/mL] | Concentration of dissolved loperamide ([1]; 20% by wt. polymer D in water, stirred 72 h, pH of filtered solution 1.9) [µg/mL] | Concentration of dissolved loperamide ([1]; demineralized water, 0% polymer, stirred 72 h) [µg/mL] | Concentration of dissolved loperamide ([1]; hydrochloric acid 10%, no polymer (loperamide hydrochloride is formed)) [µg/mL]
– | – | – | – | – | – | – | CN(C)C(=O)C(CCN1CCC(O)(c2ccc(Cl)cc2)CC1)(c1ccccc1)c1ccccc1 [loperamide] | 6200 | 3900 | 7600 | 5900 | <17 | <14.9
5200 | 10300 | 7700 | 15100 | <74 | <17.8 | <16 | O=C(CCCN1CCC(O)(c2ccc(Cl)cc2)CC1)c1ccc(F)cc1 [haloperidol] | – | – | – | – | – | –
